Legend:
virus particles = test: electron microscope study of virus particles before and after inactivation; settings: inactivation for 60 min, 1 min and 30 seconds
HIV virus = settings: 5 minute contact, room temperature; ether removed by distillation at 50-52° C.; cited from earlier work
[1] = tested on: Sinbis, Sendai and VSV viruses; settings: 4° C.; cited from earlier work
[2] = target: blood protein factor VIII (Homo sapiens, UniProt P00451); settings: cited from earlier work
blood protein factor VIII, sequence (P00451 20-2351): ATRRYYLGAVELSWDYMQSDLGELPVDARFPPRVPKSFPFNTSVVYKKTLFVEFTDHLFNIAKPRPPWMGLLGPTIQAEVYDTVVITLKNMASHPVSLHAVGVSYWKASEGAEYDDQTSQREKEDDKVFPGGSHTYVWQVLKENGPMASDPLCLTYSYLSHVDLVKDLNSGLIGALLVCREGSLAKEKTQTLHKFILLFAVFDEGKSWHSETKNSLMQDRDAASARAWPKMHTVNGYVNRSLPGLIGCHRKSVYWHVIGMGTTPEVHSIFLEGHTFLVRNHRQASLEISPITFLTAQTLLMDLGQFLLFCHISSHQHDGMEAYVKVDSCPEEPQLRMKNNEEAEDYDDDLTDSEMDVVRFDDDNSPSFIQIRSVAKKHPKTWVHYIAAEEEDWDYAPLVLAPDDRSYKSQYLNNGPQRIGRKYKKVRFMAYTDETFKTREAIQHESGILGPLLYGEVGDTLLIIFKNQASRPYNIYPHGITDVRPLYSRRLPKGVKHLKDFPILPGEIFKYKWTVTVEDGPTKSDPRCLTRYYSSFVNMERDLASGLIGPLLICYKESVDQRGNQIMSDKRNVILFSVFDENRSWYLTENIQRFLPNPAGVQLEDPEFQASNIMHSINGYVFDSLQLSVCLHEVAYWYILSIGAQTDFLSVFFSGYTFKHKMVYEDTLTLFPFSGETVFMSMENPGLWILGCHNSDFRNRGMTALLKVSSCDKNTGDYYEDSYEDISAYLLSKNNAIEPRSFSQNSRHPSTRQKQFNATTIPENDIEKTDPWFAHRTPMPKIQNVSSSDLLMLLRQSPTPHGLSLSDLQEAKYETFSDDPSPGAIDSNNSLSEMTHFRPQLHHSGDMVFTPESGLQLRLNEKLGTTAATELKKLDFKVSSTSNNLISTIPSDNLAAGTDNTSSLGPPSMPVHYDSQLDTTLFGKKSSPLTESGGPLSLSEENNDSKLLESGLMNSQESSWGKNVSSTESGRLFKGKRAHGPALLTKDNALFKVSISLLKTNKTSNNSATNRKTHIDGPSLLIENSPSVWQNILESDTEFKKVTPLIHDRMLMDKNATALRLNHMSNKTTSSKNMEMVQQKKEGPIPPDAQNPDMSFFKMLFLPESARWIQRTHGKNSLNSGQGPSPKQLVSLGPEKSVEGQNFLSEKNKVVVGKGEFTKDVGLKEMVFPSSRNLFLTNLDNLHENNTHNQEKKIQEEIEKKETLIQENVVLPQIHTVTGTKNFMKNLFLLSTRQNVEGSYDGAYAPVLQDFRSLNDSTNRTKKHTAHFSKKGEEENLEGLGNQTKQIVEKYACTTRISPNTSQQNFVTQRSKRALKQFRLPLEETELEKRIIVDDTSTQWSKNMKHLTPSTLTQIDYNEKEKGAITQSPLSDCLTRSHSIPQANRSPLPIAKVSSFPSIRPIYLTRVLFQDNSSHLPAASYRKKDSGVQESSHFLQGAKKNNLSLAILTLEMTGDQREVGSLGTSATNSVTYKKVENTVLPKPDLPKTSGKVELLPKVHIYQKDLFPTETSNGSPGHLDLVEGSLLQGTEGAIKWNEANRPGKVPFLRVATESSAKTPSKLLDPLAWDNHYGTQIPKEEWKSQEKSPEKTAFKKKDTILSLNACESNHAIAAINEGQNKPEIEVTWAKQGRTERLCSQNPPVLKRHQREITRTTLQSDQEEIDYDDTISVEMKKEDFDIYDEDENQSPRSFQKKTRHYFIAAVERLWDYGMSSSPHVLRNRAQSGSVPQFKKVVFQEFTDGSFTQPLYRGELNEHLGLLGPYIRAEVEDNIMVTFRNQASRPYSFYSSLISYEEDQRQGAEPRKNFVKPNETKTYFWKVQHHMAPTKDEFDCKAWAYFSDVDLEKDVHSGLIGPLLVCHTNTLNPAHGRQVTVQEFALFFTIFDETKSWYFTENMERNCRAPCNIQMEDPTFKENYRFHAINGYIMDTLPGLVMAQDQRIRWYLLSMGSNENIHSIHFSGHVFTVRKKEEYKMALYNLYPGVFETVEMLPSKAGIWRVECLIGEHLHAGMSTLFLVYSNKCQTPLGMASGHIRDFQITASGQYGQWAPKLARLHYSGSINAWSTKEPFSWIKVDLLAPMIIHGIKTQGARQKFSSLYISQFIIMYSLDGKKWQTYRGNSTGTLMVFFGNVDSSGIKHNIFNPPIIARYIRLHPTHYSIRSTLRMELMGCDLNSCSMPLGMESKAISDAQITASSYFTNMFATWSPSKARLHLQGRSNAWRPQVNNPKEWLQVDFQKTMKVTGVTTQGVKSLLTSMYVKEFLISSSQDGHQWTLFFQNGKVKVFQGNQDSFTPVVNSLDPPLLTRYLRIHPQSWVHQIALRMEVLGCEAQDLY

## CC(C)OC(C)C [DIPE, di-isopropyl ether]
Virus particles
  infectivity or visible virus particles by EM: no infectivity or visible virus particles detected

## CCOCC [diethyl ether]
HIV virus
  inactivation of the HIV virus: complete inactivation
[1]
  time to inactivate these viruses: many hours

## O=C1CCO1 [β-propiolactone]
[2]
  inactivation of factor VIII: up to 75%

Source: patent publication US20030133929A1 (priority 2002, published 2003)
